A value given as a limit tells only on which side of the number the result lay.

The test deals with Phosphorylation of STAT6 in human A549 cells. Description: Phosphorylated STAT6 (pSTAT6) flow cytometry assay in human A549 cells. It is filed as cell-based. As to conditions: read-out: STAT6 IL4 pSTAT6 assay in A549 cells: Average IC50. An excerpt: Example 3. Phosphorylated STAT6 (pSTAT6) Flow Cytometry Assay in Human A549 Cells
Phosphorylation of STAT6 in human A549 cells was quantitatively measured using flow cytometry technology.
Take `CCOc1ccncc1-c1cc(C2=CCCN(C(=O)CCn3ccnn3)C2)c(F)c2[nH]c(C(=O)N3CCN(c4nccnc4OC)CC3)cc12` [Example I-478]: the 50% inhibitory concentration (IC50) is below 100 nM. To `COc1c(F)cccc1-c1cc(C2=CCCN(C(C)=O)C2)c(F)c2[nH]c(C(=O)N(C)C)cc12` [Example I-881] belongs 100 to 1000 nM; to `COc1ccncc1-c1cc(C(=O)N2CCN(c3ncc(F)cc3OC)CC2)cc2cc(C3CCCN(C(=O)CCn4ccnn4)C3)[nH]c12` (centres unmarked) [Example I-1203], 1000 to 10000 nM.

For “(S)-1-(5-(7-fluoro-2-(4-(5-fluoro-3-methoxypyridin-2-yl)piperazine-1-carbonyl)-4-(1-methylpyrrolidin-3-yl)-1H-indol-6-yl)-3,6-dihydropyridin-1(2H)-yl)-3-(1H-1,2,3-triazol-1-yl)propan-1-one [Example I-811]”, the IC50 was below 100 nM. In the case of `COc1ccccc1-c1cc(C2=CCCN(C(=O)CCn3ccnn3)C2)c(F)c2[nH]c(C(=O)N3CCN(CC(=O)NC(C)C)CC3)cc12` [Example I-1200] it was below 100 nM. To `COc1cccnc1N1CCN(C(=O)c2cc3c(-c4cccc(F)c4F)cc(C4=CCCN(C(=O)CCn5ccnn5)C4)c(F)c3[nH]2)CC1` [Example I-371] belongs below 100 nM; to `CNc1cccnc1N1CCN(C(=O)c2cc3c(-c4ccccc4OC)cc(C4=CCCN(C(=O)CCn5ccnn5)C4)c(F)c3[nH]2)CC1` [Example I-439], below 100 nM; to `CCn1nccc1-c1cc(C2=CCCN(C(C)=O)C2)c(F)c2[nH]c(C(=O)N3Cc4cnn(CC)c4C3)cc12` [Example I-1176], below 100 nM. In the case of `COc1ccccc1-c1cc(C2=CCCN(C(=O)CCn3ccnn3)C2)c(F)c2[nH]c(C(=O)N3CCN(C)C(c4ccccc4)C3)cc12` (centres unmarked) [Example I-911] it was 100 to 1000 nM.

Regarding `COc1cccc(N2CCN(C(=O)c3cc4c(-c5ccc(F)cc5OC)cc(C5=CCCN(C(=O)CCn6ccnn6)C5)c(F)c4[nH]3)CC2)n1` [Example I-589], the IC50 was below 100 nM. To `COc1ccccc1-c1cc(C2=CCCN(C(=O)CCn3ccnn3)C2)c(F)c2[nH]c(C(=O)N3CCN(c4ccc(C#N)cc4F)CC3)cc12` [Example I-1009] belongs below 100 nM; to `COc1cc(F)cnc1N1CCN(C(=O)c2cc3c(-c4cncc(OC(C)C)c4)cc(C4=CCCN(C(=O)CCn5ccnn5)C4)c(F)c3[nH]2)CC1` [Example I-655], below 100 nM; to `COc1cc(F)cnc1N1CCN(C(=O)c2cc3c(-c4cccc(O)c4)cc(C4=CCCN(C(=O)CCn5ccnn5)C4)c(F)c3[nH]2)CC1` [Example I-615], below 100 nM.

`COc1ccccc1-c1cc(C2CCCN(C(=O)CCn3ccnn3)C2)c(F)c2[nH]c(C(=O)N(C)C)cc12` (centres unmarked) [Example I-1193]: the half-inhibitory concentration (IC50) was below 100 nM. In the case of `COc1ccc(N2CCN(C(=O)c3cc4c(-c5ccccc5OC)cc(C5=CCCN(C(=O)CCn6ccnn6)C5)c(F)c4[nH]3)CC2)cc1` [Example I-960] it was below 100 nM. In the case of `COc1ccccc1-c1cc(C2=CCCN(C(=O)CCn3ccnn3)C2)c(F)c2[nH]c(C(=O)N3CCN(c4cnn5ccncc45)CC3)cc12` [Example I-1015] it was below 100 nM; in that of `CCc1nc(C)ccc1-c1cc(C2=CCCN(C(=O)CCn3ccnn3)C2)c(F)c2[nH]c(C(=O)N3CCN(c4ncc(F)cc4OC)CC3)cc12` [Example I-735], below 100 nM.

`COc1cc(F)cnc1N1CCN(C(=O)c2cc3c(Cl)cc(C4=CCCN(C(=O)CCn5ccnn5)C4)c(F)c3[nH]2)CC1` [Example I-499]: the IC50 was in the range of 10000 to 100000 nM. In the case of `CN(C)C(=O)c1cc2cc(C3=CCCN(C(=O)CCn4ccnn4)C3)cnc2[nH]1` [Example I-819] it was 100 to 1000 nM. To `COc1cccc(N2CCN(C(=O)c3cc4c(-c5ccc(N(C)C)cc5OC)cc(C5=CCCN(C(=O)CCn6ccnn6)C5)c(F)c4[nH]3)CC2)n1` [Example I-1109] belongs below 100 nM. In the case of `COc1cnccc1-c1cc(C2=CCCN(C(=O)CCn3ccnn3)C2)c(F)c2[nH]c(C(=O)N3CCN(c4ccccc4OC)CC3)cc12` [Example I-407] it was above 100000 nM; in that of `COc1ccccc1-c1cc(C2=CCCN(C(=O)CCn3ccnn3)C2)c(F)c2[nH]c(C(=O)N3CCN(c4c(C)nn(C)c4C#N)CC3)cc12` [Example I-775], below 100 nM.

With `COc1ccccc1-c1cc(C2=CCCN(C(C)=O)C2)c(F)c2cc(C(=O)N(C)C)oc12` [Example I-1104], the IC50 lay in the range of 100 to 1000 nM. As to `CNc1ccc(-c2cc(C3=CCCN(C(=O)CCn4ccnn4)C3)cc3cc(C(=O)N(C)C)oc23)c(OC)c1` [Example I-1056], the concentration for half-maximal inhibition (IC50) is below 100 nM. In the case of `CN(C)C(=O)c1cc2cc(C3=CCCN(C(=O)CCn4ccnn4)C3)cc(-c3cccc4c3CN(C)C4=O)c2o1` [Example I-845] it was below 100 nM; in that of `CC(=O)N1CCC=C(c2cc(-c3ccccc3C)c3cc(C(=O)N(C)C)[nH]c3c2F)C1` [Example I-890], 100 to 1000 nM.

Consider `COc1ccccc1-c1cc(C2=CCCN(C(=O)CCn3ccnn3)C2)c(F)c2[nH]c(C(=O)N3CCN(c4cc(F)ccn4)CC3)cc12` [Example I-934], for which the IC50 is below 100 nM. In the case of `COc1ccccc1-c1cc(C2=CCCN(C(=O)CCn3ccnn3)C2)c(F)c2[nH]c(C(=O)N3CCN(c4c(C)ccc5[nH]ncc45)CC3)cc12` [Example I-959] it was below 100 nM; in that of `COc1ccncc1-c1cc(C2=CCCN(C(=O)CCn3ccnn3)C2)c(F)c2[nH]c(C(=O)N3CCN(c4ncccc4OC4CC4)CC3)cc12` [Example I-456], below 100 nM; in that of `COc1ccccc1-c1cc(C2=CCCN(C(=O)CCn3ccnn3)C2)c(F)c2[nH]c(C(=O)N3CCC(=O)N(C)CC3)cc12` [Example I-994], below 100 nM. In the case of `CCn1c(C2=CCCN(C(=O)CCn3ccnn3)C2)cc2cc(C(=O)N3CCN(c4ncc(F)cc4OC)CC3)cc(-c3ccccc3OC)c21` [Example I-734] it was below 100 nM. To `CC(=O)N1CCC=C(c2cc(-c3ccc4cnn(C)c4c3)c3cc(C(=O)N(C)C)[nH]c3c2F)C1` [Example I-882] belongs 100 to 1000 nM; to `COc1ccc(C)cc1-c1cc(C2=CCCN(C(=O)C3Cc4ccccc4CN3C=O)C2)cc2cc(C(=O)N(C)C)oc12` (centres unmarked) [Example I-1197], 100 to 1000 nM. In the case of `COc1ccccc1-c1cc(C2=CCCN(C(=O)CCn3ccnn3)C2)c(F)c2[nH]c(C(=O)NC(C#N)c3ccccc3)cc12` (centres unmarked) [Example I-772], the IC50 is above 100000 nM. Consider `COc1cc(F)cnc1N1CCN(C(=O)c2cc3c(-c4ccc(-n5nc(C)cc5C)cc4)cc(C4=CCCN(C(=O)CCn5ccnn5)C4)c(F)c3[nH]2)CC1` [Example I-1114], for which the IC50 was below 100 nM.

As to `COc1ccccc1-c1cc(C2=CCCN(C(=O)CCn3ccnn3)C2)c(F)c2[nH]c(C(=O)N3CCN(c4c(C)cc[nH]c4=O)CC3)cc12` [Example I-1030], the IC50 is below 100 nM. To `COc1ccccc1N1CCN(C(=O)c2cc3c(-c4cnccc4OCF)cc(C4=CCCN(C(=O)CCn5ccnn5)C4)c(F)c3[nH]2)CC1` [Example I-405] belongs above 100000 nM; to `CCn1cc2c(n1)CN(C(=O)c1cc3c(-c4ccccc4OC)cc(C4=CCCN(C(=O)CCn5ccnn5)C4)c(F)c3[nH]1)C2` [Example I-505], 10000 to 100000 nM; to `COc1cc(N(C)C)ccc1-c1cc(C2=CCCN(C(=O)CCn3ccnn3)C2)c(F)c2[nH]c(C(=O)N3CCN(c4ncc(Cl)cc4OC)CC3)cc12` [Example I-1039], below 100 nM.

Turning to `COc1cc(F)cnc1N1CCN(C(=O)c2cc3c(-c4ccc(NC5CCCC5)cc4)cc(C4=CCCN(C(=O)CCn5ccnn5)C4)c(F)c3[nH]2)CC1` [Example I-1124], the IC50 lay within 100 to 1000 nM. In the case of `COc1ccccc1-c1cc(C2=CCCN(C(=O)CCn3ccnn3)C2)c(F)c2[nH]c(C(=O)N3CCN(c4cnccc4OC)CC3)cc12` [Example I-465], the IC50 was above 100000 nM. To `COc1cc(F)cnc1N1CCN(C(=O)c2cc3c(-c4ccc5c(c4)OCCCO5)cc(C4=CCCN(C(=O)CCn5ccnn5)C4)c(F)c3[nH]2)CC1` [Example I-1148] belongs below 100 nM; to `COc1ncccc1-c1cc(C2=CCCN(C(C)=O)C2)c(F)c2[nH]c(C(=O)N(C)C)cc12` [Example I-879], below 100 nM; to `COc1ccccc1-c1cc(C2=CCCN(C(=O)CCn3ccnn3)C2)c(F)c2[nH]c(C(=O)N3CC4CN(c5ncccc5OC)CC4C3)cc12` (centres unmarked) [Example I-912], 100 to 1000 nM. To `COc1cc(F)cnc1N1CCN(C(=O)c2cc3c(-c4cccc(-c5cccnc5)c4)cc(C4=CCCN(C(=O)CCn5ccnn5)C4)c(F)c3[nH]2)CC1` [Example I-629] belongs below 100 nM. To `COc1ccccc1-c1cc(C2=CCCN(C(=O)CCn3ccnn3)C2)c(F)c2[nH]c(C(=O)N3CCN(Cc4ccc(Br)cc4)CC3)cc12` [Example I-852] belongs 100 to 1000 nM; to `COc1ccccc1-c1cc(C2=CCCN(C(=O)CCn3ccnn3)C2)c(F)c2[nH]c(C(=O)N3CCN(c4ccc5c(c4)C=NCC5)CC3)cc12` [Example I-918], below 100 nM; to `COc1cc(F)cnc1N1CCN(C(=O)c2cc3c(-c4ccc(-c5cccnc5)cc4)cc(C4=CCCN(C(=O)CCn5ccnn5)C4)c(F)c3[nH]2)CC1` [Example I-1152], below 100 nM. Turning to `COc1ccccc1-c1cc(C2=CCCN(C(=O)CCn3ccnn3)C2)c(F)c2[nH]c(C(=O)N(C)CCc3ccccn3)cc12` [Example I-986], the 50% inhibitory concentration (IC50) was below 100 nM. In the case of `CCc1cc(C)ncc1-c1cc(C2=CCCN(C(=O)CCn3cccn3)C2)c(F)c2[nH]c(C(=O)N3CCN(c4nc(C)ccc4OC)CC3)cc12` [Example I-514] it was below 100 nM; in that of `COc1ccccc1-c1cc(C2=CCCN(C(=O)CCn3ccnn3)C2)c(F)c2[nH]c(C(=O)N3CCN(c4cc(C)c(O)c(C)c4)CC3)cc12` [Example I-1032], 100 to 1000 nM.

On to `COc1ccncc1-c1cc(C2=CCCN(C(=O)CCn3ccnn3)C2)c(F)c2[nH]c(C(=O)N3CCN(c4nc(C)c(F)cc4OC)CC3)cc12` [Example I-500], for which the half-maximal inhibitory concentration (IC50) was above 100000 nM.

As for `COc1ccccc1-c1cc(C2=CCCN(C(=O)CCn3ccnn3)C2)c(F)c2[nH]c(C(=O)N3CCN(c4cc(O)cc5ccccc45)CC3)cc12` [Example I-930], the concentration for half-maximal inhibition (IC50) was 100 to 1000 nM.

A word on the IC50: it is the concentration that gives 50% inhibition.

Values taken from patent publication US20250214977A1, “STAT6 INHIBITORS AND USES THEREOF” (Kymera Therapeutics, Inc., priority 2024, published 2025).
